# Reference: patent US8101777B2, “Ionic liquids based on imidazolium salts incorporating a nitrile functionality” (Ecole Polytechnique Federale de Lausanne, priority 2003, dated 2012)
# What was measured:
# [1] = Stability of the nitrile-functionalised anion towards catalytic hydrogenation; assay type: physicochemical; conditions: 8 mg with RuCl2(PMe3)4 (1 mg) in acetone, H2 40 bar, 35° C., 48 hours
# Protocol: The stability of the nitrile-functionalised anion towards catalytic hydrogenation is tested by pressurising a solution of K[CH3CH(BF3)CH2CN] (8 mg) and RuCl2(PMe3)4 (1 mg) in acetone (0.4 ml) with H2 (40 bar) at 35° C.
# [2] = Viscosity, Brookfield DV-II+ viscometer; assay type: physicochemical
# Protocol: The 1-methylimidazole and 1,2-dimethylimidazole and chloronitriles are purchased from Fluka, HPF6 and NaBF4 are purchased from Aldrich and are used as received without further purification. The synthesis of the imidazolium salts 1a-5a is performed under an inert atmosphere of dry nitrogen using standard Schlenk techniques in solvents dried using the appropriate reagents and distilled prior to use. All other compounds are made without precautions to exclude air or moisture. IR spectra are recorded on a Perkin-Elmer FT-IR 2000 system. […] Electrospray ionization mass spectra (ESI-MS) are recorded on a ThermoFinnigan LCQ™ Deca XP Plus quadrupole ion trap instrument on sample diluted in methanol.^19 Samples are infused directly into the source at 5 μL min^−1 using a syringe pump and the spray voltage is set at 5 kV and the capillary temperature at 50° C. Samples 2c, 3c, 4a, 4b and 4c are purified by filtration through silica and left under vacuum (ca. 0.1 mm Hg) at 40-50° C. in order to remove traces of salt impurities and volatile components. […] Density is determined with a picometer at room temperature (20±1° C.) on 1.0 ml of sample. The measurements are repeated three times and average values are used. Viscosities are measured with a Brookfield DV-II+ viscometer on 0.50 ml of sample. […] The measurements are performed in duplicate.
# [3] = Solubility in common solvents
# [4] = Density determined with a picometer; assay type: physicochemical; conditions: room temperature (20±1° C.), 1.0 ml of sample, average of three
# Protocol: The 1-methylimidazole and 1,2-dimethylimidazole and chloronitriles are purchased from Fluka, HPF6 and NaBF4 are purchased from Aldrich and are used as received without further purification. The synthesis of the imidazolium salts 1a-5a is performed under an inert atmosphere of dry nitrogen using standard Schlenk techniques in solvents dried using the appropriate reagents and distilled prior to use. All other compounds are made without precautions to exclude air or moisture. IR spectra are recorded on a Perkin-Elmer FT-IR 2000 system. […] Electrospray ionization mass spectra (ESI-MS) are recorded on a ThermoFinnigan LCQ™ Deca XP Plus quadrupole ion trap instrument on sample diluted in methanol.^19 Samples are infused directly into the source at 5 μL min^−1 using a syringe pump and the spray voltage is set at 5 kV and the capillary temperature at 50° C. Samples 2c, 3c, 4a, 4b and 4c are purified by filtration through silica and left under vacuum (ca. 0.1 mm Hg) at 40-50° C. in order to remove traces of salt impurities and volatile components. […] Density is determined with a picometer at room temperature (20±1° C.) on 1.0 ml of sample. The measurements are repeated three times and average values are used. Viscosities are measured with a Brookfield DV-II+ viscometer on 0.50 ml of sample. The temperature of the samples is maintained to 25±1° C. by means of an external temperature controller. The measurements are performed in duplicate.
# [5] = 25±1° C., 0.50 ml of sample, duplicate
Reduction of the nitrile-functionalised anion under catalytic hydrogenation [1],Molecule,Viscosity ([2]; 20° C.) [cp],"Viscosity [2, 5] [mpa · s]",Solubility in common solvents: Acetone [3],Solubility in common solvents: Et2O [3],Solubility in common solvents: EtOH [3],Solubility in common solvents: H2O [3],Density [4] [g/mL],Solubility in common solvents: Hexane [3]
No reduction was observed,CC(CC#N)[B-](F)(F)F.[K+] (stereo not drawn) [K[CH3CH(BF3)CH2CN]],–,–,–,–,–,–,–,–
–,"Cn1cc[n+](CCCC(=O)O)c1.F[B-](F)(F)F [[C3COOHmim][BF4], 1-methyl-3-proylcarboxylimidazolium tetrafluoroborate, reference compound]",4415,–,–,–,–,–,–,–
–,"CCCCn1cc[n+](C)c1.F[B-](F)(F)F [[C4mim][BF4], 1-methyl-3-butylimidazolium tetrafluoroborate, reference compound]",115.2,115.2,miscible,immiscible,immiscible,miscible,1.14,–
–,"CCCCn1cc[n+](C)c1.F[P-](F)(F)(F)(F)F [[C4mim][PF6], reference compound]",–,320.3,miscible,immiscible,partly,partly,1.37,immiscible
–,"C=CC[n+]1ccn(C)c1.F[B-](F)(F)F [[CC═Cmim][BF4], 1-methyl-3-allylimidazolium tetrafluoroborate, reference compound]",6110,–,–,–,–,–,–,–
–,[1-butylnitrile-3-methylimidazolium]BF4 [[C4CNmim][BF4]],–,552.9,miscible,immiscible,immiscible,miscible,1.71,immiscible
–,[1-butylnitrile-3-methylimidazolium]Cl [[C4CNmim][Cl]],–,5222,immiscible,immiscible,miscible,miscible,1.61,immiscible
–,[1-butylnitrile-3-methylimidazolium]PF6 [[C4CNmim][PF6]],–,2181,miscible,immiscible,immiscible,partly,1.99,immiscible
–,[1-ethyinitrile-3-methylimidazolium]BF4 [[C2CNmim][BF4]],–,65.5,miscible,immiscible,miscible,miscible,2.15,immiscible
–,[1-ethylnitrile-3-methylimidazolium]Cl [[C2CNmim][Cl]],–,2856,immiscible,immiscible,miscible,miscible,2.67,immiscible
–,[1-propylnitrile-3-methylimidazolium]BF4 [[C3CNmim][BF4]],230.0,230,miscible,immiscible,immiscible,miscible,1.87,immiscible
